Test results taken from article PMC8147984, “Effects of Sponge-Derived Alkaloids on Activities of the Bacterial α-D-Galactosidase and Human Cancer Cell α-N-Acetylgalactosaminidase” (Biomedicines, 2021).

How the values were obtained:
[1] = target: T1, α-D-galactosidase (α-PsGal) (Pseudoalteromonas sp. KMM 701, UniProt Q19AX0); assay: Inhibitory potency on recombinant α-PsGal (residual activity); type: biochemical; conditions: for Residual activity v/v0 (%) of the α-PsGal: preincubated 30 min, 20 °C, pH 7.0
T1 sequence (Q19AX0 1-710): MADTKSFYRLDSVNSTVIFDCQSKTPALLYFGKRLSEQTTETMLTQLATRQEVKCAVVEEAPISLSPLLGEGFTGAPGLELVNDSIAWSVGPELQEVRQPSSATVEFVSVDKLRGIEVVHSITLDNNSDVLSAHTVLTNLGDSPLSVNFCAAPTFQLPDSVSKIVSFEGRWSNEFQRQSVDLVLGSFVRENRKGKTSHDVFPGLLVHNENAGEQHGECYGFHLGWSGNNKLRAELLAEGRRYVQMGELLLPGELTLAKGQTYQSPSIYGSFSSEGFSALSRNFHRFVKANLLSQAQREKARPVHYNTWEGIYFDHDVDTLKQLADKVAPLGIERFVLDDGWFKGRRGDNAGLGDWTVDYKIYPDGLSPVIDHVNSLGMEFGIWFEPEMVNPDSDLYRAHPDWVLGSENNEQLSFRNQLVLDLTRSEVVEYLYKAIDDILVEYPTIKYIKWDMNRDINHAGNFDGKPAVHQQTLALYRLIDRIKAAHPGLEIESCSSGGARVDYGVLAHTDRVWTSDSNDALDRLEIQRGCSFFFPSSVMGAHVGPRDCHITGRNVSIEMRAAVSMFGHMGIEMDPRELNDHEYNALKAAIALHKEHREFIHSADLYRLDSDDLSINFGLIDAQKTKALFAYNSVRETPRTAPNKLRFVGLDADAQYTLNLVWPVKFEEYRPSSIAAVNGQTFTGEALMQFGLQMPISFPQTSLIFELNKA
Protocol: The recombinant wild-type α-D-galactosidase (α-PsGal) was produced as described earlier. The plasmid DNA pET-40b(+) containing insertion of the gene from the marine bacterium Pseudoalteromonas sp. KMM 701 encoding α-PsGal was transformed in the Escherichia coli strain Rosetta (DE3). Heterological expression was carried out at optimal conditions as described earlier. Purification of the recombinant […] was performed, according to described procedures. The purification quality was controlled by 12% Laemmli-SDS-PAGE-electrophoresis.
(§1) The activity of α-PsGal and α-NaGalase were determined by increasing the amount of p-nithrophenol (pNP). To assay the α-NaGalase activity 0.05 mL of cell extract and 0.1 mL of substrate pNPNA-α-Gal (8.8 mM) in 0.05 M sodium citrate buffer, pH 5.0 were placed in cells of 96-well plate and incubated at 37 °C for 30 min. The mixtures containing 0.05 mL of an enzyme solution and 0.1 mL of a substrate solution (3.3 mM) in 0.05 M sodium phosphate buffer (pH 7.0) were incubated at 20 °C during 5 min for determination of α-PsGal standard activity. The reactions were stopped by the addition of 0.15 mL of 1 M Na2CO3 solution.
Absorbance was measured at 400 nm. Results were read with a computer program Gen5 and treated with ExCel computer program. The unit of standard activity (U) was defined as the amount of the enzyme catalyzing the formation of 1 µmol of p-nitrophenol (ε400 = 18,300 M^−1 cm^−1) per 1 min under the conditions indicated. Specific activity (A) was calculated as the enzyme activity (U) per 1 mg of protein. All calculations were based on reactions with consumption of 10% of the chromogenic substrate. The protein concentrations were estimated by the Bradford method with BSA as a standard. Residual activity (%) was calculated with formula: Residual activity (%) = v/v0 ×100, where v is the initial reaction rate of enzymes under the action of an inhibitor or other factors, v0 is the initial reaction rate of enzymes in the absence of the influence of any factors. Buffer solutions of α-PsGal (0.1 U/mL) and α-NaGalase (0.01 U/mL) were used in the further experiments.
In the control sample, 5 μL of water or 2 μL of EtOH were added to 25 μL of enzyme solution. The enzyme reaction was initiated by adding 120 μL of the substrate pNP-α-Gal (3.3 mM) for α-PsGal or pNPNA-α-Gal (8.8 mM) for α-NaGalase in the respective buffer solutions. After 10 min for α-PsGal or 60 min for α-NaGalase the reaction was stopped by adding 150 μL of 1 M Na2CO3. The amount of pNP was quantified by spectrophotometric detection at 400 nm. Results were evaluated as the percent of residual activity as described above.

DLD-1 cells = assay: MTS cytotoxic activity assay on DLD-1 cells; type: cell-based, human; conditions: for cytotoxicity against DLD-1 cells: dose up to 20 μM
Protocol: DLD-1 cells (8 × 10^3/200 μL) were seeded in 96-well plates for 24 h at 37 °C in a 5% CO2 incubator. The cells were treated with compounds 1–9 at concentrations ranging from 0 to 20 μM for an additional 24 h. Subsequently, cells were incubated with 15 μL MTS (3-(4,5-dimethylthiazol-2-yl)-5-(3-carboxymethoxyphenyl)-2-(4-sulfophenyl)-2H-tetrazolium) reagent for 3 h, and the absorbance in each well was measured at 490/630 nm using a microplate reader “Power Wave XS” (Bio Tek, Winooski, VT, USA). All the experiments were repeated three times, and the mean absorbance values were calculated. The results are expressed in absorbance by the compound’s treatment compared to the non-treated cells (control 1) and the compounds in medium (control 2). All the experiments were made in triplicate.

[2] = target: T1, α-D-galactosidase (α-PsGal); assay: Irreversibility of α-PsGal inhibition (dialysis experiment); type: biochemical; conditions: dialysis against buffer for 60 h at 4 °C; activity did not recover
Protocol: To determine the reversibility of the α-PsGal activity inhibition by alkaloids 2, 3, 8, and 9 15 µL of 0.625 mM aqueous solution of the compounds 2 and 3 or 6 µL of 2.5 mM ethanol solution of the compound 8 and 9 were added to 75 µL of the enzyme solution in 0.05 M sodium phosphate buffer (pH 7.0). After 30 min of the mixture incubation the aliquot of 30 µL was taken and 120 µL of 3.3 mM pNPG solution were added to initiate the reaction; the reaction was stopped by addition of 150 µL of 1M Na2CO3. The α-D-galactosidase activity was determined, as described above. The remaining reaction mixture was dialyzed against 1 L of 0.02 M sodium phosphate buffer (pH 7.0) for 60 h at 4 °C. The buffer was changed 3 times during the dialysis. The enzyme activity was determined, as described above. A sample of α-PsGal treated with H2O or EtOH in the absence of the inhibitor (75 µL of the enzyme solution and 15 µL of H2O or 6 µL of EtOH, respectively) was dialyzed and used as a control for determination of the initial activity. The experiment was carried out in two replicates. The residual activity was calculated as described above.

[3] = target: T1, α-D-galactosidase (α-PsGal); assay: Kinetic studies of α-PsGal inactivation; type: biochemical; conditions: pH 7.0, 20 °C; for Ki / kinact: Hill equation fit; for Ki: read-out: Ki, equilibrium inhibition constant; for kinact: read-out: kinact, inactivation rate constant (converted)
Protocol: The kinetic parameters Ki and kinact were determined by classic methods. The inactivation of α-PsGal was monitored by incubation of the enzyme with different concentrations of alkaloids in […] sodium phosphate buffer, pH 7.0, at 20 °C in total volume of 30 µL (25 µL and 5 µL of α-PsGal and alkaloids, respectively), which were placed in cells of 96 cells plate. After preincubation of enzyme-inhibitor mixture for 0.5, 5, 10, 15, 20, 25, or 30 min […] the fraction of remaining enzyme activity was measured as a function of time by addition to the inactivation mixture 120 µL of a solution of pNP-α-Gal (3.3 mM). The pseudo-first-order rate constant of inactivation (kobs) was determined for each inactivator concentration as the slope of the v/v0 dependence on the incubation time in semilogarithmic coordinates. The Excel software was used for these calculations. The second order rate constants for the inactivation process were determined by fitting the dependences of the kobs values on the concentration of the inactivators to the Hill or Michaelis–Menten equations. An analysis of the graphs and the choice of models for calculation of inhibition constants (Ki, mM) and inactivation rate constants (kinact, min^–1) were performed with the Origin computer software.

[4] = tested on: α-NaGalase in human colorectal adenocarcinoma cell line DLD-1; assay: Residual α-NaGalase activity (expression) in lysate of DLD-1 cells treated with alkaloids; type: cell-based; conditions: DLD-1 cells treated with 5 μM for 24 h
Protocol: DLD-1cells (5.0 × 10^5) were seeded in […] for 24 h at 37 °C in a 5% CO2 incubator. Then the cells were treated with compounds 1–9 at concentrations ranging from 0 to 20 μM for an additional 24 h. Then the cells were harvested using 0.02% EDTA, after this 3 mL of cold 15 mM Tris–HCl (pH 7.0) was added.
Every 3–4 days cells were rinsed in phosphate buffered PBS, detached from the tissue culture flask by 1× trypsin/EDTA solution, harvested with RPMI-1640 medium and centrifuge at 500 rpm for 3 min. The culture media was discarded and cells pellet was resuspended in EDTA/Tris solution and frozen at −80 °C.
Frozen lysates of cancer cells in the 15 mM Tris buffer, pH 7.0 containing 0.02% EDTA, defrosted and sonicated 10 times during 1 min with a break of 1 min. To remove the cellular detritus, the cell homogenate was centrifuged at 4 °C, 10,000 rpm, 30 min. The supernatant proteins were precipitated with 35% ammonium sulfate, kept during four hours at 4 °C to form a pellet. The protein pellet was collected by centrifugation (4 °C, 10,000 rpm, 30 min) and dissolved in 0.05 M sodium citrate buffer, pH 5.0. The supernatant proteins were precipitated with 75% ammonium sulfate, kept overnight at 4 °C to form a pellet. The protein pellet was collected by centrifugation (4 °C, 10,000 rev/min, 30 min) and dissolved in 0.05 M sodium citrate buffer, pH 5.0. Both extracts were dialyzed against the same buffer, centrifuged to separate the insoluble precipitate. α-NaGalase activity was tested in both extracts and was found only in the protein fraction precipitated with 75% ammonium sulfate. This supernatant was used in further work as partly purified enzyme. The purification quality was controlled by 12% Laemmli-SDS-PAGE-electrophoresis.
as §1, with “The reactions were stopped by the addition of 0.15 mL of 1 M Na2CO3 solution.” left out
Absorbance was measured at 400 nm. Results were read with a computer program Gen5 and treated with ExCel computer program. […] Specific activity (A) was calculated as the enzyme activity (U) per 1 mg of protein. […] Residual activity (%) was calculated with formula: Residual activity (%) = v/v0 ×100, where v is the initial reaction rate of enzymes under the action of an inhibitor or other factors, v0 is the initial reaction rate of enzymes in the absence of the influence of any factors. […]

COc1cc2ccnc3c2c(c1OC)NC=C3 [Compound 1, aaptamine]
inhibitory activity against α-PsGal (in words) [1]: no notable activity
Residual activity v/v0 (%) of the α-PsGal ([1]; compound concentration 1.67 mM): 79 ^1%
cytotoxicity against DLD-1 cells (DLD-1 cells; 24 h): non-cytotoxic

COc1cc2ccnc3c2c(c1O)N(C)C=C3 [Compound 2, isoaaptamine]
irreversibility of α-PsGal inhibition [2]: irreversibly inactivate
n, Hill's coefficient of cooperativity [3]: 2.17
Ki [3]: 2.7 ± 0.42 µM
kinact [3]: 0.002 s⁻¹
n, Hill's coefficient of cooperativity ([3]; listed as isoaaptamine (2)): 2.17 ± 0.55
expression of the enzyme α-NaGalase (residual activity of lysate cell α-NaGalase, control 100%) [4]: 64%
Residual activity v/v0 (%) of the α-PsGal ([1]; compound concentration 1.67 mM): 0 ^1%
cytotoxicity against DLD-1 cells (DLD-1 cells; 24 h): weakly cytotoxic
decrease in cell viability (DLD-1 cells; DLD-1 cells, 24 h, at 20 μM): 20%

COc1cc2ccnc3c2c(c1O)NC=C3 [Compound 3, 9-demethylaaptamine]
irreversibility of α-PsGal inhibition [2]: irreversibly inactivate
n, Hill's coefficient of cooperativity [3]: 0.84
Ki [3]: 300 ± 77 µM
kinact [3]: 0.00153 s⁻¹
n, Hill's coefficient of cooperativity ([3]; listed as 9-demethylaaptamine(3)): 0.84 ± 0.12
expression of the enzyme α-NaGalase (residual activity of lysate cell α-NaGalase, control 100%) [4]: 57%
Residual activity v/v0 (%) of the α-PsGal ([1]; compound concentration 1.67 mM): 0 ^1%
IC50 (DLD-1 cells; Homo sapiens, DLD-1, 24 h, read-out: concentration that caused a 50% reduction in cell viability (IC50) of DLD-1 cells): 17 ± 0.2 µM

COc1cc2c3c(cc[n+](C)c3c1[O-])NC(=O)C2=O [Compound 4, aaptanone]
inhibitory activity against α-PsGal (in words) [1]: no notable activity
Residual activity v/v0 (%) of the α-PsGal ([1]; compound concentration 1.67 mM): 100 ^1%

CN1CCc2cn(C)c3c2C1=CC(=O)C3=O [Compound 5, damirone A]
inhibitory activity against α-PsGal (in words) [1]: no notable activity
Residual activity v/v0 (%) of the α-PsGal ([1]; compound concentration 1.48 mM): 87 ^2%

CN1CCc2c[nH]c3c2C1=CC(=O)C3=O [Compound 6, damirone B]
expression of the enzyme α-NaGalase (residual activity of lysate cell α-NaGalase, control 100%) [4]: 52%
inhibitory activity against α-PsGal (in words) [1]: no notable activity
Residual activity v/v0 (%) of the α-PsGal ([1]; compound concentration 1.48 mM): 87 ^2%

Cn1cc2c3c1C(=O)C(N)=CC3=[N+](C)CC2 [Compound 7, makaluvamine H]
expression of the enzyme α-NaGalase (residual activity of lysate cell α-NaGalase, control 100%) [4]: 50%
inhibitory activity against α-PsGal (in words) [1]: no notable activity
Residual activity v/v0 (%) of the α-PsGal ([1]; compound concentration 1.48 mM): 67 ^2%

Cn1cc2c3c1C(=O)C(N/C=C/c1ccc(O)cc1)=CC3=[N+](C)CC2 [Compound 8, makaluvamine G]
irreversibility of α-PsGal inhibition [2]: irreversibly inactivate
n, Hill's coefficient of cooperativity [3]: 2.5
Ki [3]: 411 ± 86 µM
kinact [3]: 0.00132 s⁻¹
n, Hill's coefficient of cooperativity ([3]; listed as makaluvamine G (8)): 2.5 ± 0.97
inhibitory activity against α-PsGal (in words) [1]: low inhibitory activity
Residual activity v/v0 (%) of the α-PsGal ([1]; compound concentration 1.48 mM): 28 ^2%

CNCCc1cn(C)c2c1C(=O)c1c(-c3ccc(O)cc3)c[nH]c1C2=O [Compound 9, zyzzyanone A]
irreversibility of α-PsGal inhibition [2]: irreversibly inactivate
n, Hill's coefficient of cooperativity [3]: 4.1
Ki [3]: 105 ± 9 µM
kinact [3]: 0.000617 s⁻¹
n, Hill's coefficient of cooperativity ([3]; listed as zyzzyanone A (9)): 4.10 ± 1.42
inhibitory activity against α-PsGal (in words) [1]: low inhibitory activity
Residual activity v/v0 (%) of the α-PsGal ([1]; compound concentration 1.48 mM): 0 ^2%
